Results as given in PubChem BioAssay (NCI).
Where “and” joins values, the source holds several entries; their conditions need not be identical. Identical values can stand only once.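 Interpolation was linear, between the two tested concentrations surrounding the appropriate level; five concentrations were tested over 48 hours in 96-well plates. GI50 marks 50% less growth. TGI is the concentration that stops growth completely.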

Legend:
Assay in all cases: NCI-60 cell line screen, 48 h
ACHN renal = system: ACHN renal
OVCAR-4 ovarian = system: OVCAR-4 ovarian
A498 renal = system: A498 renal
RXF 393 renal = system: RXF 393 renal
COLO 205 colon = system: COLO 205 colon
EKVX NSCLC = system: EKVX NSCLC
RPMI-8226 leukemia = system: RPMI-8226 leukemia
UACC-257 melanoma = system: UACC-257 melanoma
SR leukemia = system: SR leukemia
NCI-H522 lung = system: NCI-H522 lung

Structure (SMILES) | TGI (ACHN renal) | TGI (OVCAR-4 ovarian) | TGI (A498 renal) [µM] | TGI (RXF 393 renal) | TGI (COLO 205 colon) | TGI (EKVX NSCLC) [µM] | TGI (RPMI-8226 leukemia) | TGI (UACC-257 melanoma) | GI50 (ACHN renal) [µM] | GI50 (SR leukemia) [µM] | TGI (SR leukemia) [µM] | GI50 (OVCAR-4 ovarian) | GI50 (NCI-H522 lung) | TGI (NCI-H522 lung) | GI50 (COLO 205 colon) | GI50 (EKVX NSCLC) [µM] | GI50 (RPMI-8226 leukemia) [µM] | GI50 (UACC-257 melanoma) | GI50 (A498 renal) [µM] | GI50 (RXF 393 renal) [µM]
CN1N=CSC12C(=O)N(c1ccccc1)C(=O)N2c1ccccc1 (configuration not stated) | > 100 µM | > 100 µM | > 100 | > 100 µM | > 100 µM | > 100 | > 100 µM | > 100 µM |  |  |  |  |  |  |  |  |  |  |  | 
CCc1c(C#N)c(=O)[nH]c(=O)n1CCN1CCN(C(=O)NCCCCCCNC(=O)N2CCN(CCn3c(CC)c(C#N)c(=O)[nH]c3=O)CC2)CC1 | > 100 µM | > 100 µM | > 100 |  | > 100 µM | > 100 | > 100 µM | > 100 µM |  |  |  |  |  |  |  |  |  |  |  | 
Oc1cccc(Nc2nc3ccccc3c3occc23)c1 | 21.4 µM | 22.1 µM |  |  | 26.7 µM | 28.5 | 18.2 µM | 29.4 µM | 7.69 | 1.38 | 18.8 | 3.8 µM | 14.5 µM | 28.8 µM | 13.8 µM | 14.6 | 4.98 | 15.9 µM |  | 
N#CC(N)=Nc1ccccc1 | > 100 µM | > 100 µM | > 100 |  | > 100 µM | > 100 | > 100 µM |  |  |  | > 100 |  |  | > 100 µM |  |  |  |  |  | 
Cc1cc2c(C)nn(Cc3ccccc3)c2c(C(=O)O)c1C | > 100 µM |  |  | > 100 µM | > 100 µM | > 100 | > 100 µM | > 100 µM |  |  | > 100 |  |  |  |  |  |  |  |  | 
O=C(Oc1cccnc1)c1cccnc1Nc1ccnc(C(F)(F)F)c1 | 66 µM | > 100 µM | 41 | 80.4 µM | 72.4 µM | > 100 | 23.7 µM | > 100 µM | 21.7 |  |  | > 100 µM | 14.5 µM | > 100 µM | 27.4 µM | 51.3 | 3.94 | 27.1 µM | 19.6 | 21.3
c1ccc(C2ONC3=NCCN32)cc1 (configuration not stated) | > 100 µM | > 100 µM | 9.02 | > 100 µM | > 100 µM | > 100 |  | > 100 µM | 41.9 |  |  | > 100 µM | 44.5 µM | > 100 µM | 41.6 µM | > 100 |  | > 100 µM | 1.97 | 82.9
Cn1c(=O)nc2n(-c3ccc(O)cc3)c3ccccc3nc-2c1=O | > 100 µM | > 100 µM | > 100 |  | > 100 µM | > 100 | > 100 µM | > 100 µM |  |  |  |  |  | > 100 µM |  |  |  |  |  | 
COc1cccc(-c2nc3cc(NC(=O)c4ccc(Cl)c(C#N)c4)ccc3o2)c1 |  | 3.43 µM |  | 9.45 µM | > 100 µM |  |  | > 100 µM |  | 35.1 | > 100 | 1.8 µM | 1.68 µM | 4.54 µM | 5.77 µM |  |  | 3.81 µM |  | 3.12
Cn1c(=O)c(N=Nc2c(=O)n(C)c(=O)n3c2[nH]c2ccccc23)c2[nH]c3ccccc3n2c1=O | > 100 µM | > 100 µM | > 100 | > 100 µM | > 100 µM | > 100 | > 100 µM | > 100 µM |  |  |  |  |  | > 100 µM |  |  |  |  |  | 
CCc1cccc(C)c1NS(=O)(=O)c1ccccc1 | > 100 µM | > 100 µM | > 100 | > 100 µM |  | > 100 | > 100 µM | > 100 µM |  |  |  |  |  |  |  |  |  |  |  | 
O=C1C2C3C=C4c5ccccc5N(c5ccccc5)C4(C2C(=O)N1c1ccccc1)C1C(=O)N(c2ccccc2)C(=O)C31 (configuration not stated) | > 100 µM |  | 5.13 |  | > 100 µM |  |  | > 100 µM |  |  | > 100 |  |  |  |  |  |  |  |  | 
C[N+](C)(C)CCC(=O)CC[N+](C)(C)C | 31.3 µM | 34.8 µM | > 100 | 36 µM | 31.8 µM | > 100 | 21.6 µM | 35.9 µM |  |  |  |  |  | 29.4 µM |  |  |  |  |  | 
Cc1ccc(S(=O)(=O)SC/C=C\CSS(=O)(=O)c2ccc(C)cc2)cc1 | > 100 µM and 83.6 µM | > 100 µM and 41.2 µM | > 100 | 77.1 µM and 36.6 µM | 33.1 µM and 33.6 µM | > 100 | 16.5 µM and 47 µM | > 56.2 µM and 45.1 µM |  |  |  | 53.1 µM and 20.1 µM | 3.79 µM and 17.1 µM | 15.6 µM and 30.8 µM | 8.94 µM and 18.8 µM |  |  | 42.3 µM and 20.8 µM |  | 
CNC(=S)Nc1ccc(OC)c2ccccc12 | > 10 µM | > 10 µM |  |  | > 10 µM |  | > 10 µM | > 10 µM |  |  | > 10 |  |  | > 10 µM |  |  |  |  |  | 
CCOC(=O)Oc1c(OC)cc(C(=O)c2ccc(OC)c(O)c2OC)cc1OC | > 100 µM | > 100 µM | 17 |  | 63.5 µM | > 100 | > 100 µM | > 100 µM | 1.95 | 0.381 | > 100 | 6.04 µM | 0.311 µM | 1.99 µM | 12.5 µM | 2.54 | 0.456 | > 100 µM | 3.19 | 
CCOC(=O)Cc1nc2ccc3c(c2[nH]c1=O)C(=O)c1ccccc1C3=O | > 100 µM | > 100 µM | > 100 | 63.1 µM | > 100 µM | 28.5 | > 100 µM | > 100 µM |  |  |  |  |  | > 100 µM |  |  |  |  |  | 
Cc1nc(C(N)=O)c(N)n1CCN1CCN(C(=O)CCCCCCCCCCNC2N=CNc3nc[nH]c32)CC1 (configuration not stated) | > 100 µM |  | > 100 |  | > 100 µM |  |  | 45.7 µM |  |  | 43.3 |  |  |  |  |  |  |  |  | 
Cc1c(/C=N/NC(=O)c2ccccc2O)c(=O)n(-c2ccccc2)n1C | > 100 µM | > 100 µM |  | > 100 µM | > 100 µM | > 100 | > 100 µM | > 100 µM |  |  | > 100 |  |  | > 100 µM |  |  |  |  |  | 
COc1ccc2nccc(C3=CCC4CCN(C(=O)c5ccccc5)C3C4)c2c1 (configuration not stated) |  | > 100 µM | > 100 | > 100 µM | > 100 µM | > 100 | > 100 µM | > 100 µM |  |  |  |  |  | > 100 µM |  |  |  |  |  | 
C1CSCCCSCCCSCCCSCCCSCCCSCCCSCCCSC1 | > 100 µM | > 100 µM | > 100 | > 100 µM | > 100 µM | > 100 | > 100 µM | > 100 µM |  |  |  |  |  | > 100 µM |  |  |  |  |  | 
Nc1ncnc2c1ncn2C1OC(CSCC(F)(F)F)C(O)C1O (configuration not stated) | > 100 µM | > 100 µM |  | > 100 µM | > 100 µM | > 100 | > 100 µM | > 100 µM |  |  | > 100 |  |  | > 100 µM |  |  |  |  |  | 
